From patent publication US9376499B2, “PAR-1 activation by metalloproteinase-1 (MMP-1)” (Tufts Medical Center, Inc., priority 2009, dated 2016)
Non-standard residues stand in square brackets, D forms with d. Residues, ends and D or L forms follow the SMILES beside them. No end group written: not given here. *: point of attachment. 4Abz = Nc1ccc(C(=O)O)cc1; NHOH = ON*

Assays:
PAR1 = test: Release of PAR1 N-terminal cleavage peptide from gel-filtered platelets (dot blot, IIaR-A antibody); type: cell-based, human
Excerpt: To further understand how collagen is able to activate significant amounts of endogenous MMP-1 collagenase activity on the surface of platelets, experiments were devised to determine if PAR-1 is cleaved in either an autocrine or paracrine manner following exposure to collagen. Using a monoclonal antibody raised against the amino-terminal thrombin-cleavage peptide region of PAR1, residues 32-46 (Loew et al., 2000), the relative abilities of thrombin, MMP-1 and collagen to cause cleavage of platelet PAR1 was assessed. Gel filtered platelets were treated for 10 min with thrombin (3 nM), MMP-1 (3 nM), collagen (5 μg/ml), in the presence or absence (PBS buffer) of 0.00013 U hirudin or 5 μM FN-439 at 37° C. Supernatants were concentrated 20-fold and applied to nitrocellulose membranes, then probed with the IIaR-A monoclonal antibody. The PAR1 N-terminal thrombin deavage peptide (A26-R41) and PAR1 flexible linker peptide (N-acetyl-T67-L84 -C) (Kuliopulos et al., 1999) served as positive and negative controls (100 ng), respectively.
These platelets were then stimulated with collagen (5 μg/ml) for 10 min. at 37° C. Supernatants were concentrated 20-fold and applied to nitrocellulose membranes, then probed with the IIaR-A monoclonal antibody. […] FN-439, or an MMP1-blocking antibody (20 μg/ml) but not by thrombin inhibitor, hirudin (see FIG. 1E, FIG. 1G).

MAPKAP-K2 = test: Collagen activation of phospho-MAPKAP-K2 in platelets (data not shown); type: cell-based, human
platelets = test: Clot retraction assay in human platelet-rich plasma, collagen initiated; type: cell-based; conditions: 2.5-5 μg/ml collagen (titration 1-20 μg/ml); FN-439 5 μM, RWJ-56110 1 μM, MMP9/13 Inh 10 nM; 90 or 240 min
Method: Platelet rich plasma (PRP) was isolated from human whole blood anti-coagulated with 4% sodium citrate. Clot retraction assays were done in 1 ml volumes containing 800 μl PBS and 200 μl PRP plus 10 μl red blood cells to enhance contrast. Samples were pretreated with FN-439 (5 μM), MMP9/13 Inh (10 nM) or RWJ-56110 (1 μM) for 15 min and clot formation was initiated with 1-20 μg/ml type I fibrillar collagen. Samples were incubated at 37° C. for 90 or 240 min and then photographed with a digital camera. Each photograph in FIG. 6I is representative of three independent experiments.

[1] = Carotid artery FeCl3 injury arterial thrombosis model; type: in vivo, guinea pig; conditions: for prolongation of the mean occlusion time: P1pal-7 alone 0.3 mg/kg, FN-439 alone 2.0 mg/kg i.v.
Excerpt: To assess the efficacy on arterial thrombosis by blockade of thrombin, MMP-1, or PAR1, a standard carotid artery FeCl3 injury model was used in guinea pigs. FeCl3 causes denudation of the artery and exposure of type I collagen and other subendothelial matrix proteins. The effects of blocking thrombin with bivalirudin, MMP-1 with FN-439, and PAR1 with either the small molecule antagonist RWJ-56110 or the P1pal-7 pepducin on arterial thrombosis were then compared using a dopier probe.
For these arterial thrombosis experiments, 10 min after i.v. administration of vehicle (−), bivalirudin, RWJ-56110, P1 pal-7 or FN-439 (n=4-5) through the jugular vein at the indicated concentrations, the right carotid arteries were injured for 20 min using a 24 mm^2 piece of Bio-Rad Trans-Blot paper soaked in 20% FeCl3. Arterial flow 5 mm distal to the site of injury was measured with a 0.5 V Doppler probe (Transonic Systems). An arterial occlusion was defined as a flow rate of <0.01 V for ≧5 min. Doppler measurements were terminated at the 30 min time point following injury (* designates p<0.05).

MMP-1 [2] = molecular target: T1, MMP-1 (Homo sapiens, UniProt P03956); conditions: cited from earlier work
T1 sequence (P03956 100-469): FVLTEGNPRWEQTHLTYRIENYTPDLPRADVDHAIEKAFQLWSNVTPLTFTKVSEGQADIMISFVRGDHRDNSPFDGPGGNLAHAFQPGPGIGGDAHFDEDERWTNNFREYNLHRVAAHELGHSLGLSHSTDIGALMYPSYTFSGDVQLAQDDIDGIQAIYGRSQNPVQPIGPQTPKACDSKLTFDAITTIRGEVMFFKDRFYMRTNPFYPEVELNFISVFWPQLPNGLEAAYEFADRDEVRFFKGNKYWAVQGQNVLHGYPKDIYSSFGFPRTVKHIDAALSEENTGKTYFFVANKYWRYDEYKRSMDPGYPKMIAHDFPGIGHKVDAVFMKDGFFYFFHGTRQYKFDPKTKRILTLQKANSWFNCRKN

MMP-3 = MMP-3 (Homo sapiens, UniProt P08254); conditions: cited from earlier work
MMP-1 [3] = molecular target: T1, MMP-1; test: Collagenase (active MMP-1) activity of collagen-stimulated human platelets, DQ collagen I fluorogenic substrate; type: biochemical; design: endogenous in cells; host or cells: human platelets from healthy donors, stimulated with collagen, ADP or U-46619; conditions: 3 μM FN-439 or 20 μg/ml blocking Ab; platelets treated with 20 μg/ml collagen
Method: The enzymatic activity of active MMP-1 in supernatants and platelet lysates was then determined. Human or guinea pig platelets from PRP were concentrated four-fold by centrifugation at 700 g for 25 min at room temperature, and then resuspended in 0.25 volume of PIPES containing 1 mM EDTA (final platelet count was 10^9/mL). Platelets were treated with PBS (buffer), 20 μM ADP, 20 μM U-46619, or 20 μg/ml collagen in the presence of 2.5 mM CaCl2. The platelets were incubated for 15 min at 37° C. with occasional gentle mixing. Platelets were collected by centrifugation at 10,000 g for 5 min at 4° C. and resuspended in lysis buffer (50 mM Tris HCl, 100 mM NaCl, 1 mM NaF, 5 mM EDTA, 0.1% (v/v) Triton X-100, 100 μM PMSF, pH 7.4) and then sheared with a 27 gauge needle.
The enzymatic activity of active MMP-1 in supernatants and platelet lysates was measured using DQ collagen I (Molecular Probes) as fluorogenic substrate and reporter of collagenase activity substrate (Boire et al., 2005) in the presence or absence of 3 μM FN-439, or 20 μg/ml each of control IgG, MMP-1 blocking Ab, MMP-8 blocking Ab or MMP-13 blocking Ab (preincubated for 2 h at 37° C.), as indicated with APMA-activated MMP-1 serving as control (FIG. 1A, striped bars). […]

MMP-3, sequence (P08254 100-477, species assumed): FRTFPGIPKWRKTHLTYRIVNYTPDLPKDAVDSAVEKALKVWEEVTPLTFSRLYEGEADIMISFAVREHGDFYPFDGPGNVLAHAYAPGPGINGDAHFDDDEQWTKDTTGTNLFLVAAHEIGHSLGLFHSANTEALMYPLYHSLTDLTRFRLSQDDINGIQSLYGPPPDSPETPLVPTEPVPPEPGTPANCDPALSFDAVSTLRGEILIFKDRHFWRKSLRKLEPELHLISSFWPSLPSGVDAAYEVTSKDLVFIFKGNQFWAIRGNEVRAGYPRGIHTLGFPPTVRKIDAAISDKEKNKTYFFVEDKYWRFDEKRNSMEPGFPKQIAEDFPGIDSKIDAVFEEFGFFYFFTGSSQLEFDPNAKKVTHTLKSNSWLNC

CC(C)C[C@@H](NC(=O)[C@@H]1CCCN1C(=O)CNC(=O)c1ccc(N)cc1)C(=O)N[C@H](C)C(=O)NO [FN-439] (H-[4Abz]GP[dL][dA]-{NHOH})
block of MMP-1-induced release of N-terminal cleavage peptide of PAR1 (PAR1; 3 nM MMP-1, 5 μM FN-439): blocked | block of collagen-induced release of PAR1 N-terminal peptide (PAR1; 5 μg/ml collagen, 10 min, 37° C., Ab 20 μg/ml, ARC 0.5 μM, ASA 1 mM): specifically blocked | block of collagen-activation of phospho-MAPKAP-K2 (MAPKAP-K2): blocked | inhibition of clot formation and retraction (platelets): completely inhibited | prolongation of the mean occlusion time [1]: 90% | IC50 (MMP-1 [2]): 1 µM | IC50 (MMP-3): 150 µM | inhibition of platelet collagenase activity released by collagen (cleavage of fluorogenic collagen substrate) (MMP-1 [3]): completely blocked

P1pal-7: PAR1 i3 loop pepducin lipopeptide, KKSRALF (SEQ ID NO. 2), palmitate (also: palmitate, site not given here)
block of collagen-activation of phospho-MAPKAP-K2 (MAPKAP-K2): blocked | additional prolongation of arterial occlusion time in combination ([1]; 0.13 mg/kg P1pal-7 supplemented with 0.18 mg/kg bivalirudin): no additional prolongation | prolongation of the mean occlusion time [1]: 80%
